This note sets out measurements from patent US6090821A, “Substituted quinolin-2 (1H)-ones useful as HIV reverse transcriptase inhibitors” (E. I. DuPont de Nemours and Company, priority 1999, dated 2000).

For this assay, the system named is HIV-1 (RF). Briefly: HIV RNA assay: microplate based compound evaluation in HIV-1 infected MT-2 cells. To be noted: Human immunodeficiency virus 1, MT2, 72 h; HIV-1 (RF) infected MT-2 cells, 3 days at 37° C.; virus dilutions selected to give this ddC value (standardization of inoculum); read-out: IC90 value (concentration of compound required to reduce the HIV RNA level by 90%). The class given is cell-based. Here is the method:
Plasmid pDAB 72 containing both gag and pol sequences of BH10 (bp 113-1816) cloned into PTZ 19R was prepared according to Erickson-Viitanen et al. AIDS Research and Human Retroviruses 1989, 5, 577. The plasmid was linearized with Bam HI prior to the generation of in vitro RNA transcripts using the Riboprobe Gemini system II kit (Promega) with T7 RNA polymerase. Synthesized RNA was purified by treatment with RNase free DNAse (Promega), phenol-chloroform extraction, and ethanol precipitation. RNA transcripts were dissolved in water, and stored at -70° C. The concentration of RNA was determined from the A260.
Biotinylated capture probes were purified by HPLC after synthesis on an Applied Biosystems (Foster City, Calif.) DNA synthesizer by addition of biotin to the 5' terminal end of the oligonucleotide, using the biotin-phosphoramidite reagent of Cocuzza, Tet. Lett. 1989, 30, 6287. […]
MT-2 and MT-4 cells were maintained in RPMI 1640 supplemented with 5% fetal calf serum (FCS) for MT-2 cells or 10% FCS for MT-4 cells, 2 mM L-glutamine and 50 μg/mL gentamycin, all from Gibco. […] Infectious titers of HIV-1(RF) stocks were 1-3×10^7 PFU (plaque forming units)/mL as measured by plaque assay on MT-2 cells (see below). […]

In brackets after ≈: the same amount, converted by molar mass.

Take `Nc1ccn([C@H]2CC[C@@H](CO)O2)c(=O)n1` [ddC, 2',3'-dideoxycytidine]: the IC90 is 0.2 mg/L (≈ 0.947 µM).
